Source: patent US7601331B2, “NIR-sensitive nanoparticle” (National University of Singapore, priority 2004, dated 2009)

What was measured:
[1] = Thermogravimetric analysis (TGA) of freeze-dried surface-modified particles; assay type: physicochemical; settings: for Decomposition Temp.: TGA in helium, surfactant on NIR-sensitive nanoparticles; for Ave. Absorbed (amount of ligand adsorbed): TGA of freeze-dried particles
Description: Thermogravimetric analysis (TGA) was conducted in helium using a Perkin-Elmer series 7 Thermal Analysis system at a ramp rate of 4° C./min from 30° C. to 900° C.

[2] = Description: Anti-cancer drugs and other biomolecules can be loaded onto the NIR-sensitive nanoparticles by coating the particles with surfactants. […] The insolubility of MUA in water necessitated the chemisorption of MUA in absolute ethanol. NIR-sensitive nanoparticles (colloids) were separated from the aqueous reaction mixture by centrifugation, and dispersed in 100 mM MUA in absolute ethanol. The nanoparticles (colloids) were dispersed in these surfactant solutions for 3 days, an estimated time for chemisorption to reach equilibrium.

| SMILES | Decomposition Temp. [1] [°C] | Ave. Absorbed (amount of ligand adsorbed) [1] [nmol/mg] | solubility in water [2] |
| --- | --- | --- | --- |
| O=C(O)CS [MAA, mercaptoacetic acid] | ~150 | 0.14 ± 0.01 |  |
| O=C(O)CCCCCCCCCCS [MUA, mercaptoundecanoic acid] | ~200 | 0.10 ± 0.03 | insolubility |
